Results on three compounds are retold here after ChEMBL document CHEMBL4819146, “Optimization of physicochemical properties of pyridone-based EP3 receptor antagonists” (Bioorg Med Chem Lett, 2021).

A short description of data set [1]: Oral bioavailability in Sprague-Dawley rat at 20 mg/kg. The format is ADME, organism-based. The conditions noted are these: in vivo.
The nature of data set [2]: Volume of distribution at steady state in Sprague-Dawley rat at 2 mg/kg, iv. In kind it is ADME, organism-based. The conditions noted are these: in vivo, read-out: Vdss.
Data set [3] is described as follows: Cmax in Sprague-Dawley rat at 20 mg/kg, po. The format is ADME, organism-based. The arrangement: route oral, dose 20 mg/kg. Particulars: in vivo.
The nature of data set [4]: AUC in Sprague-Dawley rat at 20 mg/kg, po. In kind it is ADME, organism-based. The arrangement: dose 20 mg/kg. Particulars: in vivo.
Data set [5] is described as follows: Apparent permeability from apical to basolateral side in dog MDCK cells. In kind it is ADME, cell-based, Canis lupus familiaris.

The Cmax is the highest concentration seen after dosing. The AUC is concentration integrated over time. A high value points to more exposure. For `CCn1ncc2c(F)cc(-c3ccc(C(CC)(CC)c4nnc[nH]4)c(=O)[nH]3)cc21`, in data set [1], the F was found to be 81.6%. The Vd in data set [2] was found to be 0.5 L/kg. Further, the Cmax in data set [3] is 5120 ng/mL. The AUC in data set [4] was found to be 59653 ng·h/mL.

The term Papp A→B denotes the apparent permeability from the apical to the basolateral side of a cell layer. In data set [1], `CC(C)C(c1noc(=O)[nH]1)c1ccc(-c2ccc3cccc(F)c3c2)[nH]c1=O` (configuration not stated) came in with an F of 47.8%. Besides, in data set [2], the Vd came to 0.21 L/kg. The Papp A→B in data set [5] came out at 25.3 ×10⁻⁶ cm/s. The same compound registered a Cmax in data set [3] of 6960 ng/mL. In data set [4], this compound gave an AUC of 15775 ng·h/mL.

Turning to `CC(C)C(c1nnc[nH]1)c1ccc(-c2ccc3cccc(F)c3c2)[nH]c1=O` (configuration not stated), the Vd in data set [2] amounted to 1.98 L/kg. Also, the concentration in data set [3] peaked (Cmax) at 409 ng/mL. Also, in data set [4], the exposure (AUC) was determined as 4242 ng·h/mL.
